We go through four compounds from paper PMC11473416, “Coumarin-chalcone derivatives as dual NLRP1 and NLRP3 inflammasome inhibitors targeting oxidative stress and inflammation in neurotoxin-induced HMC3 and BE(2)-M17 cell models of Parkinson's disease” (Frontiers in Aging Neuroscience, 2024).

Data set [1] is described as follows: cytotoxicity MTT assay in HMC3 cells. Format: cell-based, human. To be noted: human, MTT, 1–100 μM, 24 h. The method, then:
(§1) Human HMC3 microglial (CRL-3304) and neuroblastoma BE(2)-M17 (CRL-2267) cells were obtained from American Type Culture Collection. BE(2)-M17 develops a better dopaminergic phenotype than SH-SY5Y when treated with retinoic acid to direct neuronal differentiation (Carvajal-Oliveros et al., [2022]). Cells were routinely maintained in Dulbecco's Modified Eagle Medium-Nutrient Mixture F12 (DMEM-F12) supplemented with 10% fetal bovine serum (FBS; Thermo Fisher Scientific, Waltham, MA, USA) in a 37°C incubator, with 95% relative humidity and 5% CO2 (NuAire, Plymouth, MN, USA).
(§2) To evaluate cytotoxicity of LM compounds and MPP^+, HMC3 (1 × 10^4) or BE(2)-M17 (2 × 10^4) cells were plated on 96-well dishes, grown for 20 h, and treated with LM compounds (1–100 μM) or MPP^+ [HMC3: 0–8 mM; BE(2)-M17: 0–5 mM]. Next day, 20 μl of tetrazolium dye 3-(4,5-dimethylthiazol-2-yl)-2,5-diphenyltetrazolium bromide (MTT, 5 mg/ml; Sigma-Aldrich) was added to the cells at 37°C for 3 h. The resulted insoluble purple formazan products were dissolved by lysis buffer (composition: 10% Triton X-100, 0.1 N HCl, 18% isopropanol). The absorbance of the dissolved product at optical density (OD) 570 nm was read by using a FLx800 fluorescence microplate spectrophotometer (Bio-Tek, Winooski, VT, USA). The half maximal inhibitory concentration (IC50) of LM compounds was determined through the construction of a dose-response curve. MPP^+ at 4 mM (HMC3 cell viability: 65%−69%) or 0.62 mM [BE(2)-M17 cell viability: 79%−84%] was selected to induce inflammation for further experiments.
A general note: Formazan colour is commonly taken as a measure of viable cells.

The test system of a further data set is BDNF. Put plainly: Western blot BDNF in MPP^+-treated BE(2)-M17 cells. Format: cell-based, human. To be noted: BE(2)-M17, compound 10 μM + 0.62 mM MPP^+; MPP^+ alone 78%; untreated = 100%. The method, then: HMC3 (2 × 10^5/6-well) or BE(2)-M17 (4 × 10^5/6-well) cells were lysed in buffer (composition: 50 mM Tris-HCl pH8.0, 2 mM EDTA pH8.0, 150 mM NaCl, 0.5% sodium deoxycholate, 0.1% SDS, 50 mM NaF, 1% NP40) containing the protease and/or phosphatase inhibitor cocktail (Sigma-Aldrich). After sonication, the lysates were centrifuged (12,000 × g for 10 min at 4°C) and protein concentrations determined (Bradford protein assay; Bio-Rad, Hercules, CA, USA). Aliquots of protein (20 μg) were separated by electrophoresis using 10%−12% SDS–polyacrylamide gel followed by transfer to a polyvinylidene fluoride (PVDF) membrane. […] The immune complexes were detected using horseradish peroxidase (HRP)-conjugated goat anti-mouse or goat anti-rabbit IgG antibody (1:5,000; GeneTex) and chemiluminescent HRP substrate (Millipore, Burlington, MA, USA). Immunoreactive bands were captured (ImageQuant™ LAS 4000, GE Healthcare, Chicago, IL, USA) and quantified (Multi Gauge V3.0 software, Fujifilm, Tokyo, Japan).
In general terms: In western blotting, separated proteins are transferred to a membrane and probed.

A short description of data set [2]: cytotoxicity MTT assay in BE(2)-M17 cells. Format: cell-based, human. The note with it: human, MTT, 1–100 μM, 24 h. Here is the method: as §1, §2
A short description of data set [3]: oxygen radical antioxidant capacity (OxiSelect kit). To be noted: at 4–100 μM concentration. Here is the method:
The test of oxygen radical antioxidant capacity (Ou et al., [2001]) was performed using OxiSelect™ kit (Cell Biolabs, San Diego, CA, USA). Briefly, trolox standards (2.5–50 μM) and LM compounds (4–100 μM) were prepared using a serial dilution in a mixture containing 50% acetone and 50% water. After adding fluorescein to blank (50% acetone/50% water), standards, or samples, the mixture was mixed and incubated at 37°C for 30 min. Subsequently, free radical initiator 2,2′-azobis(2-methylpropionamidine) dihydrochloride (AAPH) was added to generate peroxyl radicals (ROO•). The quenching of fluorescent probe over time was recorded at 480 nm excitation and 520 nm emission for 60 min (Bio-Tek FLx800). To quantify the oxygen radical absorbance capacity, the area under the curve (AUC) for blank, standard and samples were calculated. After subtraction of the blank, trolox equivalent (μM) of samples were determined using a calibration curve with trolox standards.

Data set [4] deals with tyrosine hydroxylase (TH). Put plainly: tyrosine hydroxylase immunofluorescence staining in MPP^+-treated BE(2)-M17 cells. Format: cell-based, human. To be noted: for TH expression (immunofluorescence): BE(2)-M17, compound 10 μM + 0.62 mM MPP^+, MPP^+ alone 107%, untreated = 100%. Here is the method: BE(2)-M17 cells were seeded in 24-well plate (5 × 10^4/well) and treated with retinoic acid, LM compounds (10 μM), and MPP^+ as described. On day 7, cells were fixed (4% PFA), permeabilized (0.1% Triton X-100), blocked (2% BSA), and stained with primary tyrosine hydroxylase (TH; a marker for dopamine-containing neurons; Haavik and Toska, [1998]) antibody (#sc-374047; 1:500; Santa Cruz Biotechnology, Santa Cruz, CA, USA) at 4°C overnight, followed by Alexa Fluor 488-donkey anti-mouse IgG secondary antibody (#A-21202; 1:1,000; Thermo Fisher Scientific) at room temperature for 2 h. Nuclei were detected using DAPI (0.1 μg/ml). Dopaminergic differentiation was examined by fluorescence imaging of Alexa Fluor 488 as described.

The next data set relates to GCLC. Nature of the data set: Western blot GCLC in MPP^+-treated BE(2)-M17 cells. Format: cell-based, human. The note with it: BE(2)-M17, compound 10 μM + 0.62 mM MPP^+; MPP^+ alone 86%; untreated = 100%. The method, then:
HMC3 (2 × 10^5/6-well) or BE(2)-M17 (4 × 10^5/6-well) cells were lysed in buffer (composition: 50 mM Tris-HCl pH8.0, 2 mM EDTA pH8.0, 150 mM NaCl, 0.5% sodium deoxycholate, 0.1% SDS, 50 mM NaF, 1% NP40) containing the protease and/or phosphatase inhibitor cocktail (Sigma-Aldrich). After sonication, the lysates were centrifuged (12,000 × g for 10 min at 4°C) and protein concentrations determined (Bradford protein assay; Bio-Rad, Hercules, CA, USA). Aliquots of protein (20 μg) were separated by electrophoresis using 10%−12% SDS–polyacrylamide gel followed by transfer to a polyvinylidene fluoride (PVDF) membrane. After being blocked, the PVDF membrane was stained with NLRP3 (#15101s), caspase-1 (CASP1; #3866s), iNOS (#20609), IL-1β (#12242), CREB (#9192), BCL2-associated X (BAX; #2772; 1:1,000; Cell Signaling), IL-6 (#ab6672), TNF-α (#ab9739), GCLC (#ab41463), BDNF (#ab108319; 1:1,000; Abcam, Cambridge, UK), NLRP1 (#NBP-1-54899; 1:500; Novus Biologicals, Centennial, CO, USA), NRF2 (#ABE413), NQO1 (#N5288), p-CREB (Ser133; #06-519; 1:1,000; Sigma-Aldrich), PGC-1α (#GTX37356; 1:1,000; GeneTex, Irvine, CA, USA), B-cell lymphoma 2 (BCL2; #IR94-392; 1:1,000; iReal Biotechnology, New Taipei City, Taiwan), or glyceraldehyde-3-phosphate dehydrogenase (GAPDH; #30000002; 1:1,000; MDBio, Taipei, Taiwan) primary antibody at room temperature 2 h or 4°C overnight. The immune complexes were detected using horseradish peroxidase (HRP)-conjugated goat anti-mouse or goat anti-rabbit IgG antibody (1:5,000; GeneTex) and chemiluminescent HRP substrate (Millipore, Burlington, MA, USA). Immunoreactive bands were captured (ImageQuant™ LAS 4000, GE Healthcare, Chicago, IL, USA) and quantified (Multi Gauge V3.0 software, Fujifilm, Tokyo, Japan).

The subject of another data set is NQO1. Put plainly: Western blot NQO1 in MPP^+-treated BE(2)-M17 cells. Format: cell-based, human. The note with it: BE(2)-M17, compound 10 μM + 0.62 mM MPP^+; MPP^+ alone 53%; untreated = 100%.

Protocol for NQO1: HMC3 (2 × 10^5/6-well) or BE(2)-M17 (4 × 10^5/6-well) cells were lysed in buffer (composition: 50 mM Tris-HCl pH8.0, 2 mM EDTA pH8.0, 150 mM NaCl, 0.5% sodium deoxycholate, 0.1% SDS, 50 mM NaF, 1% NP40) containing the protease and/or phosphatase inhibitor cocktail (Sigma-Aldrich). After sonication, the lysates were centrifuged (12,000 × g for 10 min at 4°C) and protein concentrations determined (Bradford protein assay; Bio-Rad, Hercules, CA, USA). […] The immune complexes were detected using horseradish peroxidase (HRP)-conjugated goat anti-mouse or goat anti-rabbit IgG antibody (1:5,000; GeneTex) and chemiluminescent HRP substrate (Millipore, Burlington, MA, USA). Immunoreactive bands were captured (ImageQuant™ LAS 4000, GE Healthcare, Chicago, IL, USA) and quantified (Multi Gauge V3.0 software, Fujifilm, Tokyo, Japan).

What is called IC50 is the concentration at which inhibition is half-maximal. A low value points to greater potency. For the compound `CN(C)c1ccc(/C=C/C(=O)c2c(O)c3ccccc3oc2=O)cc1` [LM-021, (E)-3-(3-(4-(dimethylamino)phenyl)acryloyl)-4-hydroxy-2H-chromen-2-one], the IC50 in data set [1] and in data set [2] was above 100 µM each time. Moreover, the BDNF level in the data set with BDNF is 109–110%. For the same compound, the “oxygen radical antioxidant capacity, trolox equivalent” value (“oxygen radical antioxidant capacity” below) in data set [3] lay in the range of 2 to 36 µM. Also, the “TH expression (immunofluorescence)” value in data set [4] is listed as 165%. Also, in the data set on GCLC, the GCLC level was 99–106%.

Regarding `C[n+]1ccc(-c2ccccc2)cc1` [MPP^+, 1-methyl-4-phenyl pyridinium, reference compound], the TH immunofluorescence in data set [4] (BE(2)-M17, 0.62 mM MPP^+ alone, 40 h, untreated control = 100%) is reported as 107%.

`O=C(/C=C/c1ccccc1O)c1c(O)c2ccccc2oc1=O` [LM-036]: the concentration for half-maximal inhibition (IC50) in data set [1] and in data set [2] was above 100 µM in each case. The BDNF level in the data set on BDNF is 109–110%. Moreover, the “oxygen radical antioxidant capacity” value in data set [3] lay within 15 to 40 µM. Further, the “TH expression (immunofluorescence)” value in data set [4] was determined as 128%. Also, in the data set with GCLC, the GCLC level is 99–106%. Moreover, the NQO1 level with NQO1 was 81–86%.

For `Cc1ccc(/C=C/C(=O)c2c(O)c3ccccc3oc2=O)cc1` [LM-016], the IC50 at 24 h in data set [1] (HMC3 microglial cells) and in data set [2] (BE(2)-M17 neuroblastoma cells) was above 100 µM in each case. Moreover, the “oxygen radical antioxidant capacity” value in data set [3] lay within 0 to 10 µM. Further, the GCLC level with GCLC was 99–106%. The NQO1 level with NQO1 was 81–86%.
